Reference: ChEMBL document CHEMBL1152319, “Bromopyrrole alkaloids from marine sponges of the genus Agelas” (2009)
Values after ≈ are worked out from the molar mass of the structure shown.

Key:
Format in all cases: functional
[1] = tested on: Staphylococcus aureus; assay: Antibacterial activity against Staphylococcus aureus
[2] = tested on: Micrococcus luteus; assay: Antibacterial activity against Micrococcus luteus
[3] = tested on: Bacillus subtilis; assay: Antibacterial activity against Bacillus subtilis
[4] = tested on: Aspergillus niger; assay: Antifungal activity against Aspergillus niger

| MIC [1] [mg/L] | MIC [2] [mg/L] | MIC [3] [mg/L] | MIC [4] [mg/L] | SMILES |
| --- | --- | --- | --- | --- |
| 33.3 (≈ 43.4 µM) | 33.3 (≈ 43.4 µM) | 33.3 (≈ 43.4 µM) |  | N=C1N[C@H]2N3C(=N)N[C@@H](O)[C@@]34[C@H]([C@H](CNC(=O)c3cc(Br)c[nH]3)[C@@H](CNC(=O)c3cc(Br)c(Br)[nH]3)[C@@H]4Cl)[C@@]2(O)N1 [NAGELAMIDE O] |
|  |  |  | 16.7 (≈ 39.6 µM) | O=C1NC(=O)/C(=C/[C@@H](O)CNC(=O)c2cc(Br)c(Br)[nH]2)N1 [MUKANADIN F] |
